Key:
[1] = test system: 5/6 nephrectomy rats with chronic renal failure; test: Effect on renal function of 5/6 nephrectomy (5/6 Nx) rats with chronic renal failure; assay type: in vivo, rat; settings: 5/6 Nx Wistar rats, 0.2 mg/kg po once per day for 6 weeks
Protocol: Test Example 8: Test for Investigation of Effect on Renal Function of 5/6 Nephrectomy (5/6 Nx) of Rats with Chronic Renal Failure
Wistar rats (male, 8-Week-old) were used for the test. Two-thirds of the left kidney was removed under pentobarbital anesthesia, and after 1 week, the entire right kidney was nephrectomized (5/6 Nx). After 2 weeks from 5/6 Nx, the protein concentrations in urine samples obtained by urine collection for 24 hours were measured using a Bio-Rad Protein assay kit, and the creatinine concentration in urine was measured using Determiner L CRE (Kyowa Medex Co., Ltd.)). The urinary protein-creatinine ratio (UPCR) was calculated, and a group (n=12) not treated with the test compound and a group (n=12) treated with the test compound were allocated without a bias in UPCR. The test compound suspended in a 0.5% MC solution was orally administered to the group treated with the test compound at a dose of 0.2 mg/kg once per day for 6 weeks (5 mL/kg). […] Urine was collected for 24 hours from the completion of the final administration, and using the calculated UPCR as an indicator, the improvement effect of the test compound on the nephropathy of the rat with chronic renal failure was investigated. The inhibitory rate of UPCR of the group treated with the test compound when the UPCR value of the group not treated with the test compound was taken as 100% was determined.

[2] = target: T1, human EP4 receptor (Homo sapiens, UniProt P35408); test: Human EP4 receptor antagonistic action by measurement of cAMP amount in human Jurkat cells; assay type: cell-based; settings: PGE2 100 nmol/L, average of three experiments, read-out: IC50 value with respect to the cAMP production action by PGE2 in human Jurkat cells
T1 construct: purchased Chemicon
Protocol: Test Example 3: Evaluation Test of Human EP4 Receptor Antagonistic Action by Measurement of cAMP Amount in Human Jurkat Cells
Jurkat cells (derived from human leukemia T lymphoma) were cultured under the conditions of 37° C. and 5% CO2, using an RPMI1640 culture medium (product No. 11879020, Invitrogen Inc.) with 10% fetal bovine serum (FBS) added. After proliferation up to semiconfluency, indomethacin having a final concentration of […] was added thereto, and the cells were further cultured for 18 hours. These cells were collected in a 15 mL Spitz tube, prepared at 1×10^6 cells/mL using a Cell Banker (Mitsubishi Kagaku Iatron), and stored at −80° C. […]
A cAMP HiRange kit (Cisbio international) was used for cAMP measurement. […] After incubation, the fluorescence intensity of the cryptate at 620 nm and the fluorescence intensity of the d2 at 665 nm were measured using ARVO1420 (PerkinElmer). The cAMPs at 280, 70, 17.5, 4.38, 1.09, 0.27, and 0.068 nmol/L were added to each well and the fluorescence intensity was measured as described above to create a standard curve. […] An average value was calculated from three experiment results.

T1 sequence (P35408 whole entry): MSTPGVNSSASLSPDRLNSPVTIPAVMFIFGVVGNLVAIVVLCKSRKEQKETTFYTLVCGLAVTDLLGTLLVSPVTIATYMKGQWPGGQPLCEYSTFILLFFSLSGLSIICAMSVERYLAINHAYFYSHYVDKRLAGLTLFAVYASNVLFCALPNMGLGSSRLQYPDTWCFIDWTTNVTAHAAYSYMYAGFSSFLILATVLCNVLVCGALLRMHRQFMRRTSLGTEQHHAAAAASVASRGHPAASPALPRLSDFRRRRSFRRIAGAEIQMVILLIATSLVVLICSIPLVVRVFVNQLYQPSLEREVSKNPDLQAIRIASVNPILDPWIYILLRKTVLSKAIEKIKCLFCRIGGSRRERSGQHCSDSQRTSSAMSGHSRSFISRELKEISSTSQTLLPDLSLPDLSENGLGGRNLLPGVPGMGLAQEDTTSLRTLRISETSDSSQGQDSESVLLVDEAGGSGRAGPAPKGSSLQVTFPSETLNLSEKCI

IC50 [2]: 0.16 nM
SMILES: Cc1nn(Cc2cc3ccccc3cn2)c(C(=O)N[C@@H](C)c2ccc(C(=O)O)cc2)c1Br [Compound A, 4-[(1S)-1-({[4-bromo-1-(isoquinolin-3-ylmethyl)-3-methyl-1H-pyrazol-5-yl]carbonyl}amino)ethyl]benzoic acid]
Inhibitory rate of UPCR (urinary protein-creatinine ratio) [1]: 47%

Reference: US10106523B2, “Amide compound” (ASTELLAS PHARMA INC., priority 2014, dated 2018)
